In patent publication US20060074073A1, “Therapeutic combinations comprising poly (ADP-ribose) polymerases inhibitor” (AGOURON PHARMACEUTICALS, INC., priority 2004, published 2006):
Like-named read-outs stand apart in the source and are kept apart here. Marks after values point to notes of the source that are not given here.

How the values were obtained:
[1] = IV pharmacokinetics in rats; settings: Wistar, rat, in vivo, 5 mg/kg
Excerpt: Each of the dose treatment groups was split into 2 cohort groups of 4 mice. The reason for cohort blood sampling is due to the blood volume limitations of the mouse species. Blood was drawn from each cohort every other pharmacokinetic sampling time. […] Three mice per dose group were euthanized at each of the collection time points. […] Blood from each rat was collected for each time point.

[2] = test system: LoVo xenografts; experiment: In vivo antitumor efficacy with irinotecan, LoVo xenograft; design: species or system mice; settings: irinotecan 25 mg/kg i.p. + 0.5 mg/kg i.p. (glucuronate salt), once weekly × 3
Excerpt: In no combination study was antagonism observed.

[3] = Plasma and tumor levels by HPLC/MS in mice bearing SW620 xenograft; type: in vivo; settings: for concentration at 0.5 h / concentration at 6 h / concentration at 24 h: mouse, intraperitoneal
Description: In a parallel study plasma and tumor levels of the compound of formula 1 were measured by an HPLC/MS assay. In addition the degree of inhibition of tumor PARP catalytic activity was assessed using P^32-NAD incorporation into poly-ADP-ribose polymer in homogenates from SW620 tumors of treated animals. […] PARP catalytic activity was inhibited by 50% at 6 h and by 25% at 24 h.

[4] = test system: SW620 cells; experiment: Inhibition of cell growth and potentiation of topotecan, SW620; type: cell-based, human
[5] = test system: SW620 human colon carcinoma xenograft; experiment: In vivo antitumor efficacy with temozolomide, SW620 xenograft; settings: SW620
[6] = test system: PARP; experiment: Tumor PARP catalytic activity, 32P-NAD incorporation in SW620 tumor homogenates of treated animals; type: in vivo, mice
Description: Tumours were excised and were snap frozen in liquid nitrogen and stored at −80° C. until homogenised for analysis. The specimen was defrosted on ice and the wet weight documented. The tissue was homogenised using a Pro 2000 instrument (Pro Scientific Inc, Monroe, Conn., USA) in 3 volumes (i.e. 1 mg plus 3 μl isotonic buffer −7 mM Hepes, 26 mM KCl, 0.1 mM dextran, 0.4 mM EGTA, 0.5 mM MgCl2, 45 mM sucrose, pH 7.8), giving a homogenate with an overall dilution of 1 in 4. The homogenate was kept on ice throughout the process, and homogenisation was performed in 10 second bursts to prevent undue warming of the sample. Prior to assay the samples were further diluted with isotonic buffer where necessary to give a final dilution of 1 in 40 for [^32P]NAD incorporation assay or 1 in 1000 for immunoblot aaasy.
Briefly, cells were suspended in hypotonic buffer (9 mM HEPES pH 7.8, 4.5% (v/v) dextran, 4.5 mM MgCl2 and 5 mM DTT) at 1.5×10^7/ml on ice for 30 minutes then 9 vol of isotonic buffer (40 mM HEPES pH 7.8, 130 mM KCl, 4% (v/v) dextran, 2 mM EGTA, 2.3 mM MgCl2, 225 mM sucrose and 2.5 mM DTT) was added. The reaction was started by adding 300 μl cells to 100 μl 300 μM NAD^+ containing [^32P]-NAD^+ (Amersham, UK), and terminated by the addition of 2 ml ice cold 10% (w/v) TCA+10% (w/v) sodium pyrophosphate. After 30 min on ice the precipitated ^32P—labelled ADP-ribose polymers were filtered on Whatman GC/C filters (Whatman Intemational Ltd, Kent, UK), washed 5 times with 1% (v/v) TCA/1% (v/v) sodium pyrophosphate, dried and counted. PARP inhibitory IC50 values were calculated from computer-fitted curves (GraphPad Software, Inc., San Diego, Calif.).
Tumour homogenates were assayed in a similar manner; however, the homogenisation process introduces sufficient DNA damage to maximally stimulate PARP activity and oligonucleotide was not therefore required. Results were expressed in terms of pmol PAR former per mg tumour.
Preparation of Tumour/Tissue Samples • 1. The frozen tumour samples are weighed. • 2. 3 volumes (i.e. 3 μl solution added for each 1 mg tissue) of isotonic buffer plus DTT is added to the tumour sample. This is stored on ice until and during homogenisation. • 3. The sample is homogenised on ice within a Class II cabinet for 10-second bursts until no detectable macroscopic pieces of tissue are visible. • 4. Sufficient volume of the homogenate is diluted 1 in 10 with isotonic buffer plus DTT to provide an overall dilution of 1 in 40 from the original sample. A final volume of 3 ml is sufficient for triplicate sampling and a subsequent protein assay. • 5. The diluted homogenate is stored on ice and assayed within one hour as below.
PARP Assay of Tumour/Tissue Samples • 1. ^32P 600 μM NAD solution is prepared fresh on the day of experiment as detailed above. Oligonucleotide stock is removed from storage and defrosted. • 2. Water bath is warmed to 26° C. and set to agitate at 70 oscillations per minute.
3. Reaction test tubes are set up as per table A for the QC samples and as per table B for the homogenate.
• 4. Each QC sample is assayed in triplicate, with T0, +oligo and −oligo samples ×3. (Total of 9 tubes per sample, if low cell counts −oligo samples are omitted.) Homogenates are also assayed in triplicate, with T0 and reaction samples ×3. (Total 6 tubes per sample). • 5. 2 ml ice cold 10% TCA+10% NaPPi is added to the T0 tubes prior to addition of homogenate or cells, to correct for non-specific binding of radio-label to the filter. • 6. Reaction test tubes homogenates and QC cells are warmed in the water bath to 26° C. for 7 minutes. • 7. Each preparation is vortexed briefly and the reaction is started by adding 300 μl of this to each reaction tube. • 8. The reaction is stopped exactly 6 minutes after addition of homogenate by adding 2 ml of ice cold 10% TCA+10% NaPPi and vortexing. • 9. The tube is then incubated on ice for at least one hour prior to filtration. • 10. […]

SMILES: CNCc1ccc(-c2[nH]c3cc(F)cc4c3c2CCNC4=O)cc1 [compound of formula 1, 8-fluoro-2-{4-[(methylamino)methyl]phenyl}-1,3,4,5-tetrahydro-6H-azepino[5,4,3-cd]indol-6-one]
- AUC(0-inf) [1]: 990 ng·h/mL
- Vd [1]: 10 L/kg
- clearance [1]: 85 mL/min/kg
- half-life [1]: 2.8 h
- Enhancement (%) [2]: 86%
- Tumor compound of formula 1 ([3]; 1.0 mg/kg i.p. as phosphate salt, 24 h): BLQ^c
- plasma concentrations ([3]; 1.0 mg/kg, 6 hours): barely detectable
- Plasma compound of formula 1 ([3]; 10 mg/kg i.p. as phosphate salt, 0.5 h): 1867 + 102 ng/mL
- plasma concentrations ([3]; 10 mg/kg, 24 h): barely detectable
- tumor levels ([3]; 10 mg/kg, all times up to 24 h): > 200 ng/mL
- concentration at 0.5 h ([3]; plasma, 1 mg/kg, Plasma compound of formula 1, 1.0 mg/kg i.p. as phosphate salt, 0.5 h): 107 ± 32.3 ng/mL
- concentration at 6 h ([3]; plasma, 1 mg/kg, Plasma compound of formula 1, 1.0 mg/kg i.p. as phosphate salt): 6.64 ± 1.55 ng/mL
- concentration at 24 h ([3]; plasma, 1 mg/kg, Plasma compound of formula 1, 1.0 mg/kg i.p. as phosphate salt, 24 h): 1.85 ± 0.14 ng/mL
- concentration at 6 h ([3]; plasma, 10 mg/kg, Plasma compound of formula 1, 10 mg/kg i.p. as phosphate salt): 64.4 ± 11 ng/mL
- concentration at 24 h ([3]; plasma, 10 mg/kg, Plasma compound of formula 1, 10 mg/kg i.p. as phosphate salt, 24 h): 2.34 ± 0.33 ng/mL
- concentration at 6 h ([3]; plasma, 10 mg/kg, read-out: plasma concentrations): 30 ng/mL
- concentration at 0.5 h ([3]; tumor, 1 mg/kg, Tumor compound of formula 1, 1.0 mg/kg i.p. as phosphate salt, 0.5 h): 98.3 ± 25.2 ng/g
- concentration at 6 h ([3]; tumor, 1 mg/kg, Tumor compound of formula 1, 1.0 mg/kg i.p. as phosphate salt): 49.5 ± 2.12 ng/g
- concentration at 0.5 h ([3]; tumor, 10 mg/kg, Tumor compound of formula 1, 10 mg/kg i.p. as phosphate salt, 0.5 h): 767 ± 55.6 ng/g
- concentration at 6 h ([3]; tumor, 10 mg/kg, Tumor compound of formula 1, 10 mg/kg i.p. as phosphate salt): 523 ± 37.3 ng/g
- concentration at 24 h ([3]; tumor, 10 mg/kg, Tumor compound of formula 1, 10 mg/kg i.p. as phosphate salt, 24 h): 167 ± 54.2 ng/g
- Topotecan PF50 ([4]; +0.4 μM compound of formula 1): 2.6
- GI50 ([4]; Homo sapiens, SW-620, 120 h, 5-day continuous exposure): 11 µM
- Enhancement (%) ([5]; 0.1 mg/kg i.p. glucuronate salt + temozolomide 68 mg/kg p.o., QD×5): 28%
- Enhancement (%) ([5]; 1.0 mg/kg i.p. glucuronate salt + temozolomide 68 mg/kg p.o., QD×5): 100%
- Enhancement (%) ([5]; temozolomide 200 mg/kg oral + compound 0.1 mg/kg i.p., single dose): 50^e %
- Enhancement (%) ([5]; temozolomide 200 mg/kg oral + compound 0.3 mg/kg i.p., single dose): 80^e %
- Enhancement (%) ([5]; temozolomide 200 mg/kg oral + compound 1 mg/kg i.p., single dose): 107^e %
- Enhancement (%) ([5]; temozolomide 200 mg/kg oral + compound 5 mg/kg i.p., single dose): 111^e,f %
- PARP catalytic activity inhibited ([6]; 1.0 mg/kg, 6 h): 50%
- PARP catalytic activity inhibited ([6]; 1.0 mg/kg, 24 h): 25%
- PARP catalytic activity inhibited ([6]; 10 mg/kg, 6 h): 90%
- PARP catalytic activity inhibited ([6]; 10 mg/kg, 24 h): 75%
